Measured values taken from patent US20250353873A1, “COMPOUNDS AND METHODS FOR MODULATING APOE EXPRESSION” (Ionis Pharmaceuticals, Inc., priority 2024, published 2025).
Marks after values point to notes of the source that are not given here. Strand notation (5' to 3'): a small letter for the sugar, then the base; units joined by * are phosphorothioate-linked, units joined directly phosphodiester-linked; [ ] holds rarer units or linkages, { } end groups; capitals alone tell only the bases. [ms] = mesyl phosphoramidate linkage; e = 2'-O-(2-methoxyethyl) (MOE); k = constrained ethyl (cEt); [5mC] = 5-methylcytosine; d = 2'-deoxy (DNA)

What was measured:
human APOE RNA [1] = assay: Duration of action study in APOE C57BL/6NTac-Apoeem7250 knock-in mice (Example 16); type: in vivo; settings: 300 μg ICV
In short: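 Knock-in mice (2-4 per group) received a single ICV bolus of 300 μg oligonucleotide or PBS. At various timepoints, cortex and spinal cord human APOE RNA was measured by RT-qPCR (RTS3073), normalized to mouse Ppia and expressed as % of PBS control.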

human APOE RNA [2] = assay: Duration of action study in APOE C57BL/6NTac-Apoeem7250 knock-in mice (Example 18); type: in vivo
Procedure: Modified oligonucleotides described above were tested in the APOE C57BL/6NTac-Apoeem7250 knock-in model (described above).
Each mouse received a single intracerebroventricular (ICV) bolus of 300 μg of modified oligonucleotide. A group of 4-6 mice received a single ICV bolus with PBS as a negative control.
Mice were sacrificed at various timepoints as indicated in the table below and RNA was extracted from cortical brain tissue and spinal cord for quantitative real-time RT-PCR analysis of RNA expression of APOE using primer probe set RTS3073 (described herein above). APOE RNA levels were normalized to mouse Ppia. Mouse Ppia was amplified using primer probe set m_cyclo24 (described herein above). Results are presented as percent human APOE RNA relative to the amount of human APOE RNA in PBS treated animals, (% control). Each experiment is identified in separate tables below.

human APOE RNA [3] = assay: Dose-dependent reduction of human APOE RNA in HepG2 cells, electroporation, 20,000 cells per well, normalized to PPIA (Example 4, Table 11); type: cell-based; settings: HepG2 cells, 20,000 cells per well, approximately 24 hours; for APOE RNA (% UTC) 5 nM / APOE RNA (% UTC) 13 nM / APOE RNA (% UTC) 33 nM / APOE RNA (% UTC) 82 nM / APOE RNA (% UTC) 205 nM / APOE RNA (% UTC) 512 nM / IC50: PPIA-normalized; for APOE RNA (% UTC) 1,280 nM: PPIA-normalized, 1,280 nM; for APOE RNA (% UTC) 3,200 nM: PPIA-normalized, 3,200 nM; for APOE RNA (% UTC) 8,000 nM: PPIA-normalized, 8,000 nM; for APOE RNA (% UTC) 20,000 nM: PPIA-normalized, 20,000 nM; for IC50: reduction of human APOE RNA
Procedure: HepG2 cells plated at a density of 20,000 cells per well were treated by electroporation with various concentrations of modified oligonucleotide as specified in the tables below. […] APOE RNA levels were measured using the human primer probe set RTS3073 (described herein above). APOE RNA levels were normalized to human PPIA. Human PPIA was amplified using human primer probe set mk_cycloA_2nd (forward sequence […], designated herein as SEQ ID NO: 13; reverse sequence […], designated herein as SEQ ID NO: 14; probe sequence […], designated herein as SEQ ID NO: 15). Normalized results are presented in the table below as percent APOE RNA, relative to the amount of APOE RNA in untreated control cells (% UTC). The half maximal inhibitory concentration (IC50) of each modified oligonucleotide was calculated in GraphPad Prism 10 (GraphPad Software, San Diego, CA) and is also presented in the table below.

human APOE RNA [4] = assay: Dose-dependent inhibition of human APOE RNA in HepG2 cells, electroporation, 50,000 cells per well, RT-PCR normalized to GAPDH (Example 4, Tables 8-10); type: cell-based; settings: HepG2 cells, electroporation, Table 8
In short: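 HepG2 cells, 50,000 per well, electroporated with modified oligonucleotide at various concentrations. APOE RNA quantified by RT-PCR with human primer probe set RTS3073, normalized to GAPDH. Values are percent APOE RNA relative to untreated control cells.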

[5] = 196 days post-dose, single ICV bolus 300 μg, APOE knock-in mice, normalized to mouse Ppia, relative to PBS
[6] = 224 days post-dose, single ICV bolus 300 μg, APOE knock-in mice, normalized to mouse Ppia, relative to PBS
[7] = 285 days post-dose, single ICV bolus 300 μg, APOE knock-in mice, normalized to mouse Ppia, relative to PBS

| Substance | APOE RNA (% control) Cortex (human APOE RNA [1]; 7 days post-dose) [% control] | APOE RNA (% control) Cortex (human APOE RNA [1]; 14 days post-dose) [% control] | APOE RNA (% control) Spinal Cord (human APOE RNA [1]; 7 days post-dose) [% control] | APOE RNA (% control) Spinal Cord (human APOE RNA [1]; 14 days post-dose) [% control] | APOE RNA (% control) Cortex (human APOE RNA [2]; [5]) [% control] | APOE RNA (% control) Cortex (human APOE RNA [2]; [6]) [% control] | APOE RNA (% control) Cortex (human APOE RNA [2]; [7]) | APOE RNA (% control) Spinal Cord (human APOE RNA [2]; [5]) [% control] | APOE RNA (% control) Spinal Cord (human APOE RNA [2]; [6]) [% control] | APOE RNA (% control) Spinal Cord (human APOE RNA [2]; [7]) | APOE RNA (% UTC) 5 nM (human APOE RNA [3]) [% UTC] | APOE RNA (% UTC) 13 nM (human APOE RNA [3]) [% UTC] | APOE RNA (% UTC) 33 nM (human APOE RNA [3]) [% UTC] | APOE RNA (% UTC) 82 nM (human APOE RNA [3]) [% UTC] | APOE RNA (% UTC) 205 nM (human APOE RNA [3]) [% UTC] | APOE RNA (% UTC) 512 nM (human APOE RNA [3]) [% UTC] | APOE RNA (% UTC) 1,280 nM (human APOE RNA [3]) [% UTC] | APOE RNA (% UTC) 3,200 nM (human APOE RNA [3]) [% UTC] | APOE RNA (% UTC) 8,000 nM (human APOE RNA [3]) [% UTC] | APOE RNA (% UTC) 20,000 nM (human APOE RNA [3]) [% UTC] | other results |
| --- | --- | --- | --- | --- | --- | --- | --- | --- | --- | --- | --- | --- | --- | --- | --- | --- | --- | --- | --- | --- | --- |
| TezTeoGeoGksTdsGdzAdzAdzTds^mCdsTdsTdsTdsAdzTksTksAesAesAes^mCe (antisense eT[ms]eTeGkG*dT*dG[ms]dA[ms]dA[ms]dT*d[5mC]*dT*dT*dT*dA[ms]kT*kT*eA*eA*eA*e[5mC]) [Compound No. 1809814] | 62 | 57 | 84 | 53 | 68 | 90 | 95 % control | 57 | 54 | 84 % control | 102 | 95 | 95 | 88 | 71 | 49 | 19 | 31 | 8 | 13 | APOE RNA (% control) Cortex (human APOE RNA [2]; 300 μg ICV, 28 days post-dose): 55 % control; APOE RNA (% control) Cortex (human APOE RNA [2]; 300 μg ICV, 112 days post-dose): 57 % control; APOE RNA (% control) Cortex (human APOE RNA [2]; 300 μg ICV, 140 days post-dose): 71 % control; APOE RNA (% control) Spinal Cord (human APOE RNA [2]; 300 μg ICV, 28 days post-dose): 52 % control; APOE RNA (% control) Spinal Cord (human APOE RNA [2]; 300 μg ICV, 112 days post-dose): 39 % control; APOE RNA (% control) Spinal Cord (human APOE RNA [2]; 300 μg ICV, 140 days post-dose): 43 % control; IC50 (human APOE RNA [3]): 540 nM |
| ^mCksTksTksGdzGdzTdzGdzAdzAdzTds^mCdsTdsTdsTdsAdsTdsTksAksAdzAk (antisense k[5mC]*kT*kT*dG[ms]dG[ms]dT[ms]dG[ms]dA[ms]dA[ms]dT*d[5mC]*dT*dT*dT*dA*dT*kT*kA*dA[ms]kA) [Compound No. 1785602] | 40 | 30 | 56 | 28 | 56 | 79 | 84† % control | 34 | 56 | 72† % control | 75 | 85 | 75 | 62 | 44 | 31 | 16 | 10 | 8 | 2 | APOE RNA (% UTC) 5 nM (human APOE RNA [4]; 24-hour treatment, 5 nM): 96 % UTC; APOE RNA (% UTC) 13 nM (human APOE RNA [4]; 24-hour treatment, 13 nM): 109 % UTC; APOE RNA (% UTC) 33 nM (human APOE RNA [4]; 24-hour treatment, 33 nM): 83 % UTC; APOE RNA (% UTC) 82 nM (human APOE RNA [4]; 24-hour treatment, 82 nM): 64 % UTC; APOE RNA (% UTC) 205 nM (human APOE RNA [4]; 24-hour treatment, 205 nM): 55 % UTC; APOE RNA (% UTC) 512 nM (human APOE RNA [4]; 24-hour treatment, 512 nM): 27 % UTC; APOE RNA (% UTC) 1,280 nM (human APOE RNA [4]; 24-hour treatment, 1,280 nM): 18 % UTC; APOE RNA (% UTC) 3,200 nM (human APOE RNA [4]; 24-hour treatment, 3,200 nM): 11 % UTC; APOE RNA (% UTC) 8,000 nM (human APOE RNA [4]; 24-hour treatment, 8,000 nM): 8 % UTC; APOE RNA (% UTC) 20,000 nM (human APOE RNA [4]; 24-hour treatment, 20,000 nM): 4 % UTC; IC50 (human APOE RNA [4]; reduction of human APOE RNA, 24-hour treatment): 220 nM; IC50 (human APOE RNA [3]): 140 nM |
